# Biological target: Protease (Human immunodeficiency virus 1, UniProt Q9YQ12)
# Assay: Inhibition of HIV1 protease
# Protease, sequence (Q9YQ12 whole entry): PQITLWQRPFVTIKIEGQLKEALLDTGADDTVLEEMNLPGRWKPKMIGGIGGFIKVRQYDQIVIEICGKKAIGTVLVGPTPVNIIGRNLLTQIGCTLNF
row,Compound,Ki
1,Cc1cccc(C)c1OCC(=O)N[C@@H](Cc1ccccc1)C(O)C[C@H](Cc1ccccc1)NC(=O)[C@@H]1CN(c2cccc(C(F)(F)F)c2)C(=O)O1 (stereo partly drawn),21.6 nM
2,CC(=O)NC(C(=O)N[C@@H](Cc1ccccc1)CC(O)[C@H](Cc1ccccc1)NC(=O)[C@@H]1CN(c2ccc(F)c(F)c2)C(=O)O1)C(C)C (stereo partly drawn),2.13 nM
3,CC(=O)NC(C(=O)N[C@@H](Cc1ccccc1)CC(O)[C@H](Cc1ccccc1)NC(=O)[C@@H]1CN(c2cccc(C(F)(F)F)c2)C(=O)O1)C(C)C (stereo partly drawn),2.62 nM
4,COC(=O)NC(C(=O)N[C@@H](Cc1ccccc1)CC(O)[C@H](Cc1ccccc1)NC(=O)[C@@H]1CN(c2ccccc2)C(=O)O1)C(C)(C)C (stereo partly drawn),3.51 nM
5,Cc1cccc(C)c1OCC(=O)N[C@@H](Cc1ccccc1)CC(O)[C@H](Cc1ccccc1)NC(=O)[C@@H]1CN(c2ccccc2)C(=O)O1 (stereo partly drawn),8.05 nM
6,CC(=O)c1cccc(N2C[C@@H](C(=O)N[C@@H](Cc3ccccc3)C(O)C[C@H](Cc3ccccc3)NC(=O)COc3c(C)cccc3C)OC2=O)c1 (stereo partly drawn),35.1 nM
7,CC(=O)c1ccc(N2C[C@@H](C(=O)N[C@@H](Cc3ccccc3)C(O)C[C@H](Cc3ccccc3)NC(=O)COc3c(C)cccc3C)OC2=O)cc1 (stereo partly drawn),39.9 nM
8,Cc1cccc(C)c1OCC(=O)N[C@@H](Cc1ccccc1)C(O)C[C@H](Cc1ccccc1)NC(=O)[C@@H]1CN(c2ccccc2)C(=O)O1 (stereo partly drawn),4730 nM
9,O=C(Cc1ccc2c(c1)OCO2)N[C@H](CC[C@H](Cc1ccccc1)NC(=O)[C@@H]1CN(c2ccccc2)C(=O)O1)Cc1ccccc1,657 nM
10,O=C(N[C@@H](Cc1ccccc1)C(O)C[C@H](Cc1ccccc1)NC(=O)[C@@H]1CN(c2cccc(C(F)(F)F)c2)C(=O)O1)OCc1ccccn1 (stereo partly drawn),41.1 nM
11,COC(=O)NC(C(=O)NN(CC(C)C)CC(O)[C@H](Cc1ccccc1)NC(=O)[C@@H]1CN(c2ccccc2)C(=O)O1)C(C)(C)C (stereo partly drawn),7 nM
12,COC(=O)NC(C(=O)N[C@@H](Cc1ccccc1)C(O)CN(CC(C)C)NC(=O)C1CN(c2ccccc2)C(=O)O1)C(C)(C)C (stereo partly drawn),10.6 nM
13,CC(=O)c1cccc(N2CC(C(=O)NN(Cc3ccc(-c4ccccn4)cc3)CC(O)[C@H](Cc3ccccc3)NC(=O)[C@@H]3CN(c4cccc(C(C)=O)c4)C(=O)O3)OC2=O)c1 (stereo partly drawn),1090 nM

# Reference: ChEMBL document CHEMBL1255205, “Validated predictive QSAR modeling of N-aryl-oxazolidinone-5-carboxamides for anti-HIV protease activity” (Bioorg Med Chem Lett, 2010)
